Marks after values point to notes of the source that are not given here.
Legend:
[1] = system: myocardium injury model of rats induced by ISO; assay: Myocardium injury (myocardial ischemia) model of rats induced by ISO; assay type: in vivo, SD rats; settings: drug 0.76 mg/kg, n=8; for Σ ST: rats, ISO s.c.
Description: SD rats were measured ECG by chest leads before experiment, abandoned those of abnormal or arrhythmia at T wave, ST sect. […] They were divided into four groups according to Table 4, eight rats in each group. As dose of Table 4, tested compounds or 0.5% CMC-Na solution with same volume were administered through duodenum for 30 minutes, rats were anaesthetized with aether. After ECG was recorded, Isoproterenol (ISO) was administered by subcutaneous injection from the back, recorded ECG again after 30 minutes. After specimen was intragastricly granted for 24 hours and 48 hours, every group was administered simples again and recorded ECG again in terms of the methods stated above. After 72 hours, bleeding from the ophthalmic venous plexus and separated blood serum through centrifugation. Killed the rats, scissor the tip of the heart to prepare 10% myocardial tissue homogenate with 4° C. physiological saline as standby.
Measured each rat's value of ST before first administering ISO. And after first, second and third subcutaneous injection for 30 minutes, calculated mv mean value of ΣST as guide line of myocardium injury and performed t test.
The changes of MDA LDH and CK in serum were measured with agent kits.
The changes of MDA, LDH and CK in serum and myocardial tissue homogenate were measured with agent kits.

[2] = system: cerebral ischemia-reperfusion injury of mice; assay: Memory step-through test after cerebral ischemia-reperfusion injury; assay type: in vivo, NIH mice; settings: 4.5 mg/kg intragastric once a day for 10 days, n=10
Description: After weighed, NIH mice were anaesthetized with Penbotarbital 60 mg/kg, then performed operation. Fixed at supine position, the skin in the middle of the deck was dissected about 7 mm. Separated common carotid artery of two sides of neck, surrounded with the thread of No “0”. Common carotid artery of two sides was chipped with artery clip for 2 minutes to induce cerebral ischemia. In the end of ischemia treatment, artery clip was loosed and blood perfusion was restored, rest for five minutes, repeated twice as that. After blocking blood flow of carotid, sutured incision. Recorded trail bloodletting, bloodletting quantity was no more than 10% of total blood quantity. After operation, […] were administered with proper physiological saline through intraperitoneal injection in order to supple capacity of blood. After pseudo operation group was anaesthetized, carotid of two sides was separated but blood flow was not blocked, without being bloodletting too.
In experiment appearance of body temperature lowering and righting reflex disappearing was as positive guide-line of ischemia, discarding those without typical guide line of ischemia. In the procedure of ischemia or after operation, some of animals would be dead. […] According to the dose of Table 7, animals were administered with medicine by intragastric intubation once a day, and continue administered drug for 10 days. After 10 days, memory test was performed.

[3] = system: osteoporosis model of rats induced by Retinoic acid; assay: Osteoporosis model of rats induced by Retinoic acid; assay type: in vivo, SD rats; settings: Retinoic acid 70 mg/kg, specimen orally 30 days (dose not given), right thighbone, n=8
Excerpt: After continuously administering specimen for 30 days, killed rats and took right thighbone of rat.
Took same part tissue of right thighbone, routinely decalcified, enveloped with olefin, and dyed with HE. Observed with ordinary optics microscope, import all imagines into computer with A/D conversion of pickup camera, via dealing with image analysis software obtained index of guide line as follows: relative bone volume, indicating percentage that bone trabecula accounted for medullary cavity, 1.25×10×4 times; average width of bone trabecula, 1.25×10×10 times; amount of cell per area in bone trabecula, gathering same area image (640×480) of bone trabecula with image analysis software, calculating amount of bone cell in corresponding area, 1.25×10×40 times; Average length of bone cell lacuna, 1.25×10×40; Average width of bone cell lacuna, 1.25×10×40. The above five indexes of static state guide-line were all observed for ten eyeshots, calculating their average value.

[4] = system: thymus and spleen of mice; assay: Indexes of thymus and spleen of mice injected with cyclophosphamide; assay type: in vivo, NIH mice; settings: cyclophosphamide 60 mg/kg i.p., drug 10 mg/kg intragastric for 30 days, n=10
Description: Chose 90 healthy NIH mice, weighing (18˜22)g, equal amount of male and female. Every mouse was injected with cyclophos phamide (60 mg/kg, intraperitoneally). […] Administered specimen through intragastric intubation in terms of the dose in Table 8. Continuously administered orally specimen for 30 days, all mice fasted on the 30th day, but were supplied with water. On the 31th day, mice of every group were killed. Weighed their body, thymus and spleen, calculated index of thymus and spleen, compared the difference among each group.

[5] = system: acute renal failure of mice induced by endotoxin; assay: Acute renal failure model induced by endotoxin; assay type: in vivo, NIH mice; settings: drug 10 mg/kg i.p., endotoxin 0.06 g/kg, after five hours, n=10; for GSH-Px: mice kidney homogenate; for BUN / Cr: mice serum
Description: After five hours, blood of the mice was collected by removing eyes, assayed Blood Urea Nitrogen (BUN) and Creatinine (Cr) concentration of serum. One kidney of each […] was taken out and made 100 mL/L homogenate, assayed activity of Glutathione Peroxidase (GSH-Px) enzyme.

[6] = system: arrhythmia of rats induced by Aconitine; assay: Arrhythmia of rats induced by Aconitine; assay type: in vivo, SD rats; settings: rats, drug 0.5 mg/kg sublingual vein 10 min before Aconitine 2.5 μg/min, n=10
Description: Male SD rats, weighing (218.3±20.0) g, were anaesthetized with urethane 1.2 g/kg body weight by abdominal injection, continuously monitored by II lead electrocardiogram (ECG) by MS302 Biological Signal Record and Analysis System. After ten minutes of being administered drug or 0.5% CMC-Na through sublingual vein, rats were injected with Aconitine in external jugular vein at 2.5 μg/min speed, recorded the dose at appearance time of ventricular premature beat (VP), ventricular tachycardia (VT), ventricular fibrillation (VF) and cardiac arrest (CA), respectively. And t test was performed. […] The effect of compounds Ca Do E at 0.5 mg/kg dose were remarkably better than that of Prasterone and Arniodarone.

[7] = system: arrhythmia of guinea pigs induced by Ouabain; assay: Arrhythmia of guinea pigs induced by Ouabain; assay type: in vivo; settings: drug 1.5 mg/kg 10 min before Ouabain 3 μg/min, n=8
Description: Chose 40 male guinea pigs, weighing (288.8±38.3) g, randomly divided into six groups, anaesthetized with urethane 1.2 g/kg by abdominal injection. Ten minutes after administered drug or 0.5% CMC-Na, the guinea pigs were injected Ouabain into external jugular vein at 3 μg/min speed, recorded ECG respectively, measured the dose at appearance time of VP, VT, VF and CA, and performed t test.

[8] = myocardial tissue homogenate of rats with ISO myocardium injury
[9] = serum of rats with ISO myocardium injury, after 72 hours

Row | Compound | Activity of CK [1, 8] [U/L] | Activity of LDH [1, 8] [U/L] | MDA [1, 8] [nmol/g] | Σ ST ([1]; 30 min) [mv] | Σ ST ([1]; 24 h) [mv] | Σ ST ([1]; 48 h) [mv] | Σ ST ([1]; 72 h) [mv] | Activity of CK [1, 9] [U/L] | Activity of LDH [1, 9] [U/L] | MDA [1, 9] [nmol/mL] | Latency of dark cabin, Memory [2] [s] | Latency of dark cabin, Study [2] [s] | Number of error [2] [n] | Amount of cell per area in bone trabecula [3] | Average width of bone trabecula [3] [μm] | Relative bone volume [3] [%] | Index of spleen [4] [mg/10 g body weight] | Index of thymus [4] [mg/10 g body weight] | GSH-Px [5] [nU · L^−1] | BUN [5] | further results
1 | C[C@]12CC[C@H](OC(=O)CCCC(=O)O[C@H]3CC[C@@]4(C)C(=CC[C@@H]5[C@@H]4CC[C@]4(C)C(=O)CC[C@@H]54)C3)CC1=CC[C@@H]1[C@@H]2CC[C@]2(C)C(=O)CC[C@@H]12 [Compound E, glutaric acid-(5-androsten-17-one-3β-ol)-diester] | 206.18 ± 43.80 | 160.27 ± 20.36 | 89.62 ± 12.37 | 0.53 ± 0.11 | 0.50 ± 0.10 | 0.57 ± 0.04 | 0.51 ± 0.07 | 275.44 ± 21.81 | 267.35 ± 38.42 | 25.54 ± 3.80 | 45.8 ± 12.9 | 24.1 ± 16.0 | 3.1 ± 2.7 | 19.35 ± 3.13 | 68.66 ± 9.80 | 35.87 ± 3.12 | 68.20 ± 9.82 | 20.22 ± 2.75 | 32.0 ± 14.4 | 315.9 ± 40.8*** 10 mg · L^−1 | Cr [5]: 32.86 ± 8.07*** 10 mg · L^−1; Dose of Aconitine required to induce CA [6]: 0.1845 ± 0.0271 mg/kg; Dose of Aconitine required to induce VF [6]: 0.1634 ± 0.0305 mg/kg; Dose of Aconitine required to induce VP [6]: 0.1082 ± 0.0374 mg/kg; Dose of Aconitine required to induce VT [6]: 0.1224 ± 0.0378 mg/kg
2 | C[C@]12CC[C@H](OC(=O)CCCCC(=O)O[C@H]3CC[C@@]4(C)C(=CC[C@@H]5[C@@H]4CC[C@]4(C)C(=O)CC[C@@H]54)C3)CC1=CC[C@@H]1[C@@H]2CC[C@]2(C)C(=O)CC[C@@H]12 [Compound F, adipic acid-(5-androsten-17-one-3β-ol)-diester] | 221.58 ± 45.58 | 157.39 ± 20.69 | 105.02 ± 10.84 | 0.47 ± 0.10 | 0.57 ± 0.15 | 0.61 ± 0.05 | 0.53 ± 0.08 | 252.17 ± 18.41 | 250.40 ± 31.30 | 24.16 ± 4.18 | 46.5 ± 13.8 | 28.7 ± 11.8 | 2.9 ± 1.1 | 26.31 ± 3.16 | 74.67 ± 3.56 | 37.14 ± 3.46 | 75.24 ± 15.48 | 16.24 ± 3.31 | 35.2 ± 12.8 | 377.1 ± 38.1*** 10 mg · L^−1 | Dose of Oua at appearance of CA [7]: 0.212 ± 0.0406 mg/kg; Dose of Oua at appearance of VF [7]: 0.1762 ± 0.0481 mg/kg; Dose of Oua at appearance of VP [7]: 0.0874 ± 0.0213 mg/kg; Dose of Oua at appearance of VT [7]: 0.1394 ± 0.0354 mg/kg; Cr [5]: 38.31 ± 9.69*** 10 mg · L^−1
3 | glycol-disulphonic acid-(5-androsten-17-one-3β-ol)-diester [Compound G] | 225.60 ± 31.81 | 152.22 ± 25.42 | 99.52 ± 13.15 | 0.51 ± 0.13 | 0.50 ± 0.14 | 0.67 ± 0.19 | 0.42 ± 0.07 | 248.20 ± 20.50 | 254.75 ± 30.81 | 20.54 ± 2.11 | 47.5 ± 15.7 | 29.5 ± 17.5 | 3.4 ± 1.6 | 25.84 ± 3.31 | 69.67 ± 3.15 | 34.37 ± 3.27 | 80.22 ± 17.33 | 18.39 ± 3.24 | 31.8 ± 12.3 | 412.2 ± 40.5*** 10 mg · L^−1 | Dose of Oua at appearance of CA [7]: 0.228 ± 0.0398 mg/kg; Dose of Oua at appearance of VF [7]: 0.1887 ± 0.0378 mg/kg; Dose of Oua at appearance of VP [7]: 0.1109 ± 0.0203 mg/kg; Dose of Oua at appearance of VT [7]: 0.1443 ± 0.0338 mg/kg; Cr [5]: 40.42 ± 10.94*** 10 mg · L^−1

Source: US20040171594A1, “Use of bis-acid(5-androsten-17-one-3beta-hydroxyl)diester for manufacture pharmaceuticals” (priority 2001, published 2004)
